For data set [1], the system named is CD3^−20uCAR-T cells. The data set is described as follows: Regulation of U-CAR-T survival by ganciclovir in vivo (Raji xenograft). Conditions: NSG mice with Raji, FIG. 4C. The method, then:
NSG mice (n=6/group) were injected intravenously with 5×10^5 Raji, which was followed by the administration of 1×10^7 CD3^−20uCAR-T cells on day 7 or two hundred micrograms of Ganciclovir were administered on day 7, 10 and 13. 7 days after the treatment, bone marrow, spleen and peripheral blood were collected for analysis of CAR-T cell (mCD45^−hCD45^+hCD3^+) persistence and Raji (mCD45^−hCD45^+hCD19^+) tumor cell burden (FIG. 4C). Statistical significance was determined by Mann-Whitney U test and presented by *P<0.05, **P<0.01, ***P<0.001; NS: Not Significant. Statistical significance was determined by unpaired t test. Statistical significance was presented by *P<0.05, ***P<0.001.

Data set [2] deals with U-CAR-T cells. The experiment in a line: Regulation of U-CAR-T survival by ganciclovir in vitro. The class given is cell-based, human. The following applies: ganciclovir 0-3 μg/mL, 48 hours, anti-CD20 and anti-CD19 U-CAR-T, FIG. 4A. The protocol:
The anti-CD20 U-CAR-T cells obtained in Example 1, anti-CD19 U-CAR-T cells (prepared according to the method in Example 1) and the control CAR-T (without knockout of CD3) were inoculated into 96-well plates, and the number of surviving CAR-Ts was compared after 48 hours by adding the indicated concentration of ganciclovir (0, 0.1 μg/mL, 0.3 μg/mL, 1 μg/mL, 3 μg/mL), and the results are shown in FIG. 4A.

Data set [3] deals with CD3 gene. The data set is described as follows: sgRNA knockdown efficiency assay (transient transfection, flow detection with anti-TCR antibody). Conditions: Jurkat cells, 0.6 μg pLenti-CrisprV2 plasmid, harvested at 48 h, FIG. 1F. In kind it is cell-based, human. The method, then:
2×10^5 Jurkat cells were transiently transfected with 0.6 μg pLenti-CrisprV2-hCD3E1/E2/D1/D2/Z1/Z2/G1/G2/G3 plasmids and cells were harvested at 48 h. Anti-TCR antibody was used for flow detection and untransfected plasmids were used as negative control.
The box in the figure represented the knockdown efficiency, where Z1 has the highest knockdown efficiency (about 81.2%).

We go through two compounds from US12359169B2, “Universal CAR-T cell and preparation method and use thereof” (SHANGHAI LONGYAO BIOTECHNOLOGY INC., LTD., priority 2018, dated 2025).

With `Nc1nc(O)c2ncn(COC(CO)CO)c2n1` [ganciclovir], the “clearance of CD3− UCAR-T cells from organs” value in data set [1] (200 micrograms ganciclovir on day 7, 10 and 13, bone marrow, spleen, peripheral blood) is on record as “effectively cleared”. Further, in data set [1] (CD3− UCAR-T plus ganciclovir, compared to CD3+ CAR-T), the tumor load entry is reported as “elevated tumor load”. In addition, in data set [2], the “number of surviving CAR-Ts (survival of U-CAR-T)” value is “can regulate the survival of U-CAR-T”.
Consider “Z1: sgRNA for knockout of CD3 zeta, SEQ ID NO: 8, GTGGAAGGCGCTTTTCACCG (listed as DNA, chemistry not given here)”, for which the knockdown efficiency entry in data set [3] is given as “about 81.2%”.
